One assay concerns the target T1, FKBP52 (Homo sapiens, UniProt Q02790).
T1 construct: Purified FK1-domains of FKBP51WT (4.5 nM) with F4 (3 nM), FKBP52WT (400 nM) with F2 (20 nM); implied by Ni-NTA purification) (N); made in house; host or cells: E. coli BL21(DE3)pLysS
T1 sequence (Q02790 50-138 limits assumed): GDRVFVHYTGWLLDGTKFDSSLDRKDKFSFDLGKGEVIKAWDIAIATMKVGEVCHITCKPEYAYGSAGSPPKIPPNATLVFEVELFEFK
As to the kind of experiment: Fluorescence polarization binding assay, FK1-domain of FKBP52WT with tracer F2 (selectivity FKBP51 vs. FKBP52). The following applies: selectivity factor over FKBP52; compounds B01-C25. Summed up:
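Compounds titrated against FK1 domain of FKBP52 WT with fluorescent tracer F2, in duplicate; competition curves fitted to four-parameter logistic for IC50. Ki derived from exact competitive-binding equation using tracer Kd; selectivity expressed as Ki(FKBP51)/Ki(FKBP52).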

Another assay addresses T2, FKBP51 (Homo sapiens, UniProt Q13451).
T2 sequence (Q13451 42-130 limits assumed): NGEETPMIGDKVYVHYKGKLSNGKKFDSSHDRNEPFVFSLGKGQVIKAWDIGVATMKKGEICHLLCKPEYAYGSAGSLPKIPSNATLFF
The experiment in a line: Fluorescence polarization binding assay, FK1-domain of FKBP51WT with tracer F4. Further details: Purified FK1-domains of FKBP51WT (4.5 nM) with F4 (3 nM), FKBP52WT (400 nM) with F2 (20 nM); made in house; host or cells: E. coli BL21(DE3)pLysS. The conditions noted are these: compounds B01-C25; read-out: Affinity(Ki) for FKBP51. Summed up:
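Competitive fluorescence polarization with tracer F4 and FKBP51 FK1 domain (wild type), compounds titrated by serial dilution from DMSO stock, run in duplicate. IC50 from four-parameter logistic fit; inhibition constants from an exact competitive-binding equation using tracer and inhibitor Kd values.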
(Fluorescence polarisation rises when a labelled molecule tumbles more slowly, as on binding a larger partner.)

Usually Ki stands for the equilibrium dissociation constant of an inhibitor or competing ligand from its target. Turning to `COc1cc([C@@H](C(=O)N2CCCC[C@H]2C(=O)NC2(C(N)=O)CC2)C2CCCCC2)cc(OC)c1OC` [Compound B26, (S)-N-(1-carbamoylcyclopropyl)-1-((S)-2-cyclohexyl-2-(3,4,5-trimethoxyphenyl)acetyl)piperidine-2-carboxamide], the “Ki(FKBP51)/Ki(FKBP52)” value on FKBP52 is “++ (>50 ++)”. Besides, the Ki on FKBP51 lay within 10 to 50 µM.
`COc1cc([C@@H](C(=O)N2CCCC[C@H]2C(=O)NC2(C(N)=O)CCC2)C2CCCCC2)cc(OC)c1OC` [Compound B27, (S)-N-(1-carbamoylcyclobutyl)-1-((S)-2-cyclohexyl-2-(3,4,5-trimethoxyphenyl)acetyl)piperidine-2-carboxamide]: the “Ki(FKBP51)/Ki(FKBP52)” value on FKBP52 is given as “++ (>50 ++)”. Also, the Ki on FKBP51 is 1 to 10 µM.
For `COc1cc([C@@H](C(=O)N2CCCC[C@H]2C(=O)NC2(C(N)=O)CCCC2)C2CCCCC2)cc(OC)c1OC` [Compound B28, (S)-N-(1-carbamoylcyclopentyl)-1-((S)-2-cyclohexyl-2-(3,4,5-trimethoxyphenyl)acetyl)piperidine-2-carboxamide], in that order: “++++ (>5000 ++++)” and 0.1 to 1 µM.
On to `COc1cc([C@@H](C(=O)N2CCCC[C@H]2C(=O)NCCC(N)=O)C2CCCCC2)cc(OC)c1OC` [Compound B29, (S)-N-(3-amino-3-oxopropyl)-1-((S)-2-cyclohexyl-2-(3,4,5-trimethoxyphenyl)acetyl)piperidine-2-carboxamide], for which the “Ki(FKBP51)/Ki(FKBP52)” value on FKBP52 was “++ (>50 ++)”. Also, the inhibitory constant (Ki) at FKBP51 was 1 to 10 µM.
The like results for `COc1cc([C@@H](C(=O)N2CCCC[C@H]2C(=O)N[C@@H](CC(C)C)C(N)=O)C2CCCCC2)cc(OC)c1OC` [Compound B30, (S)-N-((S)-1-amino-4-methyl-1-oxopentan-2-yl)-1-((S)-2-cyclohexyl-2-(3,4,5-trimethoxyphenyl)acetyl)piperidine-2-carboxamide] were, in that order, “++ (>50 ++)” and 1 to 10 µM.
For the compound `COc1cc([C@@H](C(=O)N2CCCC[C@H]2C(=O)NC2(C(N)=O)CCCCC2)C2CCCCC2)cc(OC)c1OC` [Compound B31, (S)-N-(1-carbamoylcyclohexyl)-1-((S)-2-cyclohexyl-2-(3,4,5-trimethoxyphenyl)acetyl)piperidine-2-carboxamide], at FKBP52, the “Ki(FKBP51)/Ki(FKBP52)” value is “++ (>50 ++)”. Also, the Ki at FKBP51 fell in the range of 1 to 10 µM.
On to `COc1cc([C@@H](C(=O)N2CCCC[C@H]2C(=O)NC2(C(N)=O)CCOCC2)C2CCCCC2)cc(OC)c1OC` [Compound B32], for which, on FKBP52, the “Ki(FKBP51)/Ki(FKBP52)” value is “++ (>50 ++)”. Further, the Ki on FKBP51 lay in the range of 10 to 50 µM.
For `COc1cc([C@@H](C(=O)N2CCCC[C@H]2C(=O)NC2(C(=O)NCC(N)=O)CCCC2)C2CCCCC2)cc(OC)c1OC` [Compound B33, (S)-N-(1-((2-amino-2-oxoethyl)carbamoyl)cyclopentyl)-1-((S)-2-cyclohexyl-2-(3,4,5-trimethoxyphenyl)acetyl)piperidine-2-carboxamide], in that order: “+++ (>500 +++)” and 1 to 10 µM.
`COc1cc([C@@H](C(=O)N2CCCC[C@H]2C(=O)N[C@H](Cc2c[nH]cn2)C(N)=O)C2CCCCC2)cc(OC)c1OC` [Compound B34, (S)-N-((R)-1-amino-3-(1H-imidazol-4-yl)-1-oxopropan-2-yl)-1-((S)-2-cyclohexyl-2-(3,4,5-trimethoxyphenyl)acetyl)piperidine-2-carboxamide]: the “Ki(FKBP51)/Ki(FKBP52)” value on FKBP52 is “++ (>50 ++)”. The inhibition constant (Ki) at FKBP51 fell in the range of 10 to 50 µM.
The like results for `COc1cc([C@@H](C(=O)N2CCCC[C@H]2C(=O)N[C@@H](Cc2c[nH]cn2)C(N)=O)C2CCCCC2)cc(OC)c1OC` [Compound B35, (S)-N-((S)-1-amino-3-(1H-imidazol-4-yl)-1-oxopropan-2-yl)-1-((S)-2-cyclohexyl-2-(3,4,5-trimethoxyphenyl)acetyl)piperidine-2-carboxamide] were, in that order, “+ (>5 +)” and 10 to 50 µM.
The like results for `COC(=O)[C@@H]1CCCCN1C(=O)[C@H](c1cc(OC)c(OC)c(OC)c1)C1CCCCC1` [Compound C01, (S)-methyl 1-((S)-2-cyclohexyl-2-(3,4,5-trimethoxyphenyl)acetyl)piperidine-2-carboxylate] were, in that order, “++ (>50 ++)” and 1 to 10 µM.
Consider `CCOC(=O)[C@@H]1CCCCN1C(=O)[C@H](c1cc(OC)c(OC)c(OC)c1)C1CCCCC1` [Compound C02, (S)-ethyl 1-((S)-2-cyclohexyl-2-(3,4,5-trimethoxyphenyl)acetyl)piperidine-2-carboxylate], for which the “Ki(FKBP51)/Ki(FKBP52)” value on FKBP52 is given as “++ (>50 ++)”. Further, the inhibition constant (Ki) at FKBP51 is 1 to 10 µM.
The like results for `CCCOC(=O)[C@@H]1CCCCN1C(=O)[C@H](c1cc(OC)c(OC)c(OC)c1)C1CCCCC1` [Compound C03, (S)-propyl 1-((S)-2-cyclohexyl-2-(3,4,5-trimethoxyphenyl)acetyl)piperidine-2-carboxylate] were, in that order, “+++ (>500 +++)” and 1 to 10 µM.
For `COc1cc([C@@H](C(=O)N2CCCC[C@H]2C(=O)OC(C)C)C2CCCCC2)cc(OC)c1OC` [Compound C04, (S)-isopropyl 1-((S)-2-cyclohexyl-2-(3,4,5-trimethoxyphenyl)acetyl)piperidine-2-carboxylate], in that order: “+++ (>500 +++)” and 0.1 to 1 µM.
Take `CCNC(=O)[C@@H]1CCCCN1C(=O)[C@H](c1cc(OC)c(OC)c(OC)c1)C1CCCCC1` [Compound C05, (S)-1-((S)-2-cyclohexyl-2-(3,4,5-trimethoxyphenyl)acetyl)-N-ethylpiperidine-2-carboxamide]: the “Ki(FKBP51)/Ki(FKBP52)” value on FKBP52 is listed as “++ (>50 ++)”. Also, the inhibitory constant (Ki) on FKBP51 lay in the range of 10 to 50 µM.
For the compound `COc1cc([C@@H](C(=O)N2CCCC[C@H]2C(=O)O)C2CCCCC2)cc(OC)c1OC` [Compound C06, (S)-1-((S)-2-cyclohexyl-2-(3,4,5-trimethoxyphenyl)acetyl)piperidine-2-carboxylic acid], the “Ki(FKBP51)/Ki(FKBP52)” value on FKBP52 was “+ (>5 +)”. For the same compound, the Ki on FKBP51 was in the range of 10 to 50 µM.
For the compound `CC[C@H](C)OC(=O)[C@@H]1CCCCN1C(=O)[C@H](c1cc(OC)c(OC)c(OC)c1)C1CCCCC1` [Compound C07, (S)-(S)-sec-butyl-1-((S)-2-cyclohexyl-2-(3,4,5-trimethoxyphenyl)acetyl) piperidine-2-carboxylate], on FKBP52, the “Ki(FKBP51)/Ki(FKBP52)” value is listed as “++ (>50 ++)”. Moreover, the inhibition constant Ki on FKBP51 lay in the range of 10 to 50 µM.
For the compound `CCC(CC)OC(=O)[C@@H]1CCCCN1C(=O)[C@H](c1cc(OC)c(OC)c(OC)c1)C1CCCCC1` [Compound C09, (S)-pentan-3-yl-1-((S)-2-cyclohexyl-2-(3,4,5-trimethoxyphenyl)acetyl)piperidine-2-carboxylate], on FKBP52, the “Ki(FKBP51)/Ki(FKBP52)” value was “++ (>50 ++)”. Moreover, the Ki at FKBP51 was 10 to 50 µM.
The like results for `COc1cc([C@@H](C(=O)N2CCCC[C@H]2C(=O)OC(C)(C)C)C2CCCCC2)cc(OC)c1OC` [Compound C10, (S)-tert-butyl-1-((S)-2-cyclohexyl-2-(3,4,5-trimethoxyphenyl)acetyl)piperidine-2-carboxylate] were, in that order, “+++ (>500 +++)” and 1 to 10 µM.
For `COc1cc([C@@H](C(=O)N2CCCC[C@H]2C(=O)OC2(C)CCCC2)C2CCCCC2)cc(OC)c1OC` [Compound C11, (S)-1-methylcyclopentyl-1-((S)-2-cyclohexyl-2-(3,4,5-trimethoxyphenyl)acetyl) piperidine-2-carboxylate], in that order: “+++ (>500 +++)” and 1 to 10 µM.
The like results for `COc1cc([C@@H](C(=O)N2CCCC[C@H]2C(=O)OC2CCOCC2)C2CCCCC2)cc(OC)c1OC` [Compound C12, (S)-tetrahydro-2H-pyran-4-yl-1-((S)-2-cyclohexyl-2-(3,4,5-trimethoxyphenyl)acetyl)piperidine-2-carboxylate] were, in that order, “+++ (>500 +++)” and 1 to 10 µM.
Take `COc1cc([C@@H](C(=O)N2CCCC[C@H]2C(=O)OC2CCCC2)C2CCCCC2)cc(OC)c1OC` [Compound C13, (S)-cyclopentyl-1-((S)-2-cyclohexyl-2-(3,4,5-trimethoxyphenyl)acetyl)piperidine-2-carboxylate]: at FKBP52, the “Ki(FKBP51)/Ki(FKBP52)” value is recorded as “+++ (>500 +++)”. In addition, the Ki on FKBP51 lay within 1 to 10 µM.
For `COc1cc([C@@H](C(=O)N2CCCC[C@H]2C(=O)OC2CC=CC2)C2CCCCC2)cc(OC)c1OC` [Compound C14, (S)-cyclopent-3-en-1-yl-1-((S)-2-cyclohexyl-2-(3,4,5-trimethoxyphenyl)acetyl) piperidine-2-carboxylate], in that order: “+++ (>500 +++)” and 1 to 10 µM.
The like results for `COc1cc([C@@H](C(=O)N2CCCC[C@H]2C(=O)OC2CCCCCC2)C2CCCCC2)cc(OC)c1OC` [Compound C16, (S)-cycloheptyl-1-((S)-2-cyclohexyl-2-(3,4,5-trimethoxyphenyl)acetyl)piperidine-2-carboxylate] were, in that order, “++ (>50 ++)” and 10 to 50 µM.
